One assay relates to Staphylococcus aureus. In words: microbe, parasite or virus in culture. As to conditions: ATCC 43300, 18 h, ASSAY_TEST Inhibition of Bacterial Growth, detection method Absorption (OD600), MEDIA CAMHB, plate type 384well, NBS, CORNING #3640.
Assay [1] has as its system Pseudomonas aeruginosa. The assay can be described thus: Antibacterial activity against Pseudomonas aeruginosa PAO397 [PAO1 d(mexAB-oprM) d(mexCD-oprJ) d(mexEF-oprN) d(mexJKL) d(mexXY) d(opmH)] (CO-ADD:GN_211); MIC in CAMBH media using NBS plates, by OD(600). Format: functional. As to conditions: ASSAY_TEST Inhibition of Bacterial Growth, detection method Absorption (OD600), MEDIA CAMHB, plate type 384well, CORNING #3640, time 18 hr.

The next assay has as its system Escherichia coli. The assay can be described thus: microbe, parasite or virus in culture. As to conditions: ATCC 25922, 18 h, ASSAY_TEST Inhibition of Bacterial Growth, detection method Absorption (OD600), MEDIA CAMHB, plate type 384well, NBS, CORNING #3640.
The subject of another assay is HEK293. The assay can be described thus: cells. The class given is functional, Homo sapiens, ATCC CRL1573. The note with it: Homo sapiens, ATCC CRL1573, HEK293; ASSAY_TEST Inhibition of Cell Viability; detection method Resazurin; Fluorescence (ex560/em590); MEDIA DMEM with 10% FBS; plate type 384well; TC; CORNING #3712; time 18 hr; read-out: CC50.
The test system of another assay is Candida albicans. In words: microbe, parasite or virus in culture. The note with it: ATCC 90028, ASSAY_TEST Inhibition of Fungal Growth, detection method Absorption (OD530), plate type 384well, NBS, CORNING #3640.
A further assay has as its system Acinetobacter baumannii. The assay can be described thus: microbe, parasite or virus in culture. As to conditions: ATCC 19606, 18 h, ASSAY_TEST Inhibition of Bacterial Growth, detection method Absorption (OD600), MEDIA CAMHB, plate type 384well, NBS, CORNING #3640.
The subject of a further assay is Klebsiella pneumoniae. In words: microbe, parasite or virus in culture. The note with it: ATCC 700603, 18 h, ASSAY_TEST Inhibition of Bacterial Growth, detection method Absorption (OD600), MEDIA CAMHB, plate type 384well, NBS, CORNING #3640.
In assay [2] the test system is Pseudomonas aeruginosa. The assay can be described thus: microbe, parasite or virus in culture. As to conditions: ATCC 27853, 18 h, ASSAY_TEST Inhibition of Bacterial Growth, detection method Absorption (OD600), MEDIA CAMHB, plate type 384well, NBS, CORNING #3640.
Description: Antibacterial activity against Pseudomonas aeruginosa ATCC 27853 (CO-ADD:GN_042); MIC in CAMBH media using NBS plates, by OD(600)

Each structure is given as a SMILES string. In brackets after ≈: the same amount, converted by molar mass. Where a name gives a salt, the structure may show the parent alone. Some results are limits rather than exact numbers.

Description for Acinetobacter baumannii: Antibacterial activity against Acinetobacter baumannii ATCC 19606 (CO-ADD:GN_034); MIC in CAMBH media using NBS plates, by OD600
Description for Candida albicans: Antifungal activity against Candida albicans ATCC 90028 (CO-ADD:FG_001); MIC in YNB media using NBS plates, by OD630
Description for Cryptococcus neoformans: Antifungal activity against Cryptococcus neoformans H99 ATCC 208821 (CO-ADD:FG_002); MIC in YNB media using NBS plates, by Resazurin OD(600-570)
Description for Escherichia coli: Antibacterial activity against Escherichia coli ATCC 25922 (CO-ADD:GN_001); MIC in CAMBH media using NBS plates, by OD(600)
Description for Klebsiella pneumoniae: Antibacterial activity against Klebsiella pneumoniae MDR ATCC 70063 (CO-ADD:GN_003); MIC in CAMBH media using NBS plates, by OD(600)
Description for Staphylococcus aureus: Antibacterial activity against Staphylococcus aureus MRSA ATCC 43300 (CO-ADD:GP_020); MIC in CAMBH media, using NBS plates, by OD(600)

As for `O=C(NCc1ccc(F)cc1)c1c(O)c2ncccc2[nH]c1=O`, the MIC against Staphylococcus aureus, against Pseudomonas aeruginosa [1], with Escherichia coli, with Cryptococcus neoformans, in the assay on Candida albicans and against Acinetobacter baumannii was above 20 µM in each case. Further, the MIC against Klebsiella pneumoniae and in the assay on Pseudomonas aeruginosa [2] was above 20 µM throughout. Also, the CC50 in the assay with HEK293 was above 20 µM.
As for `Cc1cccc(CC(=O)N[C@H]2CCOC2=O)c1`, the MIC against Staphylococcus aureus, with Pseudomonas aeruginosa [1], against Escherichia coli, against Cryptococcus neoformans, with Candida albicans and against Acinetobacter baumannii was above 20 µM in each case. Besides, the MIC against Klebsiella pneumoniae and against Pseudomonas aeruginosa [2] was above 20 µM throughout. Besides, in the assay on HEK293, the CC50 is above 20 µM.
Consider `O=C(O)c1sccc1S(=O)(=O)n1ccc2cc(Br)ccc21`, for which the MIC in the assay on Staphylococcus aureus, in the assay with Pseudomonas aeruginosa [1], against Escherichia coli, with Cryptococcus neoformans, in the assay with Candida albicans and in the assay with Acinetobacter baumannii was above 20 µM throughout. Also, the MIC in the assay on Klebsiella pneumoniae and in the assay with Pseudomonas aeruginosa [2] was above 20 µM throughout. In the assay with HEK293, the 50% cytotoxic concentration (CC50) is above 20 µM.
Regarding `Cc1nc(Nc2ccc(F)cc2)nc(N2CCc3ccccc3C2C)c1C` (configuration not stated) [REVAPRAZAN], the MIC with Staphylococcus aureus, against Pseudomonas aeruginosa [1], in the assay with Escherichia coli, with Cryptococcus neoformans, with Candida albicans and against Acinetobacter baumannii was above 20 µM in each case. The MIC in the assay on Klebsiella pneumoniae and against Pseudomonas aeruginosa [2] was above 20 µM each time. In addition, in the assay on HEK293, the CC50 was above 20 µM.
As for `O=C(c1ccccc1)N1CCN(c2ccccc2NC(=O)C(Cl)(Cl)Cl)CC1`, the MIC against Staphylococcus aureus, against Pseudomonas aeruginosa [1], against Escherichia coli, with Cryptococcus neoformans, in the assay on Candida albicans and in the assay on Acinetobacter baumannii was above 20 µM each time. In addition, the MIC in the assay with Klebsiella pneumoniae and in the assay on Pseudomonas aeruginosa [2] was above 20 µM in each case. In addition, the CC50 with HEK293 was above 20 µM.
Take `COc1ccc(NC(=O)CC2Sc3ncnn3C2=O)cc1` (configuration not stated): the MIC with Staphylococcus aureus is above 20 µM; against Pseudomonas aeruginosa [1] it was above 20 µM; with Escherichia coli it was above 20 µM; with Cryptococcus neoformans, 20 µM (≈ 6.09 µg/mL); with Candida albicans, above 20 µM; against Acinetobacter baumannii it was above 20 µM. Besides, the MIC in the assay on Klebsiella pneumoniae and in the assay on Pseudomonas aeruginosa [2] was above 20 µM throughout. The CC50 with HEK293 stood at 19.5 µM.
In the case of `CN1c2ccc(Cl)cc2N(c2ccccc2)C(=O)c2cn(Cc3ccc(CN4CCOCC4)cc3)nc21`, the MIC in the assay on Staphylococcus aureus, in the assay with Pseudomonas aeruginosa [1], with Escherichia coli, with Cryptococcus neoformans, with Candida albicans and in the assay with Acinetobacter baumannii was above 20 µM throughout. In addition, the MIC against Klebsiella pneumoniae and against Pseudomonas aeruginosa [2] was above 20 µM in each case. For the same compound, in the assay with HEK293, the CC50 is above 20 µM.
Consider `Cn1c2ccccc2c(=O)c2c(O)cccc21`, for which the MIC against Staphylococcus aureus, in the assay on Pseudomonas aeruginosa [1], against Escherichia coli, against Cryptococcus neoformans, against Candida albicans and with Acinetobacter baumannii was above 20 µM each time. The MIC in the assay with Klebsiella pneumoniae and against Pseudomonas aeruginosa [2] was above 20 µM each time. The CC50 in the assay on HEK293 is above 20 µM.
With `COc1cc(C(C(=O)NC2CCCCC2)N(C(=O)Cc2c[nH]c3ccccc23)c2ccc(C(C)C)cc2)cc(OC)c1OC` (configuration not stated), the MIC in the assay on Staphylococcus aureus, against Pseudomonas aeruginosa [1], in the assay on Escherichia coli, against Cryptococcus neoformans, in the assay with Candida albicans and in the assay with Acinetobacter baumannii was above 20 µM each time. The MIC against Klebsiella pneumoniae and against Pseudomonas aeruginosa [2] was above 20 µM each time. The CC50 in the assay on HEK293 is above 20 µM.
Turning to `N#Cc1c(F)c(Cl)c(NCc2ccccc2)c(C#N)c1F`, the MIC against Staphylococcus aureus was 5 µM (≈ 1.52 µg/mL); against Pseudomonas aeruginosa [1] it was above 20 µM; with Escherichia coli, above 20 µM; against Cryptococcus neoformans, above 20 µM; in the assay on Candida albicans, above 20 µM; with Acinetobacter baumannii, above 20 µM. Further, the MIC in the assay on Klebsiella pneumoniae and against Pseudomonas aeruginosa [2] was above 20 µM throughout. The CC50 in the assay on HEK293 was 5.16 µM.
As to `CCOCc1nc2c(N)nc3ccccc3c2n1CC(C)(C)O` [RESIQUIMOD], the MIC in the assay on Staphylococcus aureus, in the assay with Pseudomonas aeruginosa [1], in the assay on Escherichia coli, in the assay with Cryptococcus neoformans, with Candida albicans and against Acinetobacter baumannii was above 20 µM each time. Moreover, the MIC against Klebsiella pneumoniae and against Pseudomonas aeruginosa [2] was above 20 µM each time. The CC50 in the assay on HEK293 is above 20 µM.
For the compound `CC(C)(C)c1ccc(OCCn2nc(C(=O)O)c3ccccc3c2=O)cc1`, the MIC with Staphylococcus aureus, in the assay with Pseudomonas aeruginosa [1], with Escherichia coli, with Cryptococcus neoformans, against Candida albicans and in the assay on Acinetobacter baumannii was above 20 µM in each case. The MIC in the assay on Klebsiella pneumoniae and against Pseudomonas aeruginosa [2] was above 20 µM each time. The CC50 with HEK293 is above 20 µM.
With `CCCC(=O)OCCc1ccccc1`, the MIC in the assay on Staphylococcus aureus, in the assay with Pseudomonas aeruginosa [1], in the assay on Escherichia coli, with Cryptococcus neoformans, with Candida albicans and with Acinetobacter baumannii was above 20 µM each time. The MIC against Klebsiella pneumoniae and in the assay with Pseudomonas aeruginosa [2] was above 20 µM throughout. In addition, in the assay on HEK293, the CC50 is above 20 µM.
As for `CC(N)C12CC3CC(CC(C3)C1)C2` (configuration not stated) [RIMANTADINE HYDROCHLORIDE], the MIC in the assay on Staphylococcus aureus, in the assay on Pseudomonas aeruginosa [1], with Escherichia coli, with Cryptococcus neoformans, in the assay with Candida albicans and against Acinetobacter baumannii was above 20 µM throughout. The MIC against Klebsiella pneumoniae and in the assay with Pseudomonas aeruginosa [2] was above 20 µM throughout. The CC50 in the assay with HEK293 is above 20 µM.
On to `COc1cc(NCc2ccc3nc(N)nc(N)c3c2C)cc(OC)c1OC` [TRIMETREXATE], for which the MIC is 1.25 µM (≈ 0.462 µg/mL) in the assay on Staphylococcus aureus; 0.625 µM (≈ 0.231 µg/mL) in the assay on Pseudomonas aeruginosa [1]; 10 µM (≈ 3.69 µg/mL) with Escherichia coli; above 20 µM against Cryptococcus neoformans; above 20 µM in the assay with Candida albicans; above 20 µM against Acinetobacter baumannii. The MIC is above 20 µM against Klebsiella pneumoniae and 5 µM (≈ 1.85 µg/mL) with Pseudomonas aeruginosa [2]. Moreover, the CC50 with HEK293 was above 20 µM.
Turning to `NC(=O)c1nccn([C@@H]2O[C@H](CO)[C@@H](O)[C@H]2O)c1=O`, the MIC in the assay with Staphylococcus aureus, in the assay with Pseudomonas aeruginosa [1], with Escherichia coli, in the assay with Cryptococcus neoformans, against Candida albicans and in the assay on Acinetobacter baumannii was above 20 µM in each case. The MIC against Klebsiella pneumoniae and against Pseudomonas aeruginosa [2] was above 20 µM each time. The CC50 in the assay with HEK293 was above 20 µM.
Take `Cc1ccc(S(=O)(=O)Nc2cccc3cccnc23)cc1`: the MIC against Staphylococcus aureus, in the assay with Pseudomonas aeruginosa [1], in the assay with Escherichia coli, against Cryptococcus neoformans, in the assay on Candida albicans and against Acinetobacter baumannii was above 20 µM in each case. The MIC against Klebsiella pneumoniae and against Pseudomonas aeruginosa [2] was above 20 µM in each case. Also, in the assay on HEK293, the CC50 was 4.05 µM.
Turning to `COc1ccccc1CN[C@H]1C2CCN(CC2)[C@H]1C(c1ccccc1)c1ccccc1` [CP-96345], the MIC against Staphylococcus aureus, in the assay with Pseudomonas aeruginosa [1], against Escherichia coli, with Cryptococcus neoformans, against Candida albicans and against Acinetobacter baumannii was above 20 µM throughout. The MIC in the assay with Klebsiella pneumoniae and with Pseudomonas aeruginosa [2] was above 20 µM each time. The CC50 with HEK293 was above 20 µM.

(Values after ChEMBL document CHEMBL4513161, “CO-ADD screening of MMV (CH) - Pandemic Response Box” (2021).)
